Measurements taken from paper PMC12267109, “The enzyme kinetics of branched‐chain fatty acid synthesis of metazoan fatty acid synthase” (Protein Science : A Publication of the Protein Society, 2025).

Experiments:
[1] = molecular target: T1, metazoan fatty acid synthase (mFAS), murine FAS (Mus musculus, UniProt P19096); assay: NADPH consumption assay with purified mFAS; GC-MS of methyl-branched fatty acid products; type: biochemical
T1 construct: gene Fasn; full length mFAS

[2] = molecular target: T1, metazoan fatty acid synthase (mFAS), murine FAS; assay: NADPH consumption by purified mFAS, fluorescence; type: biochemical

T1 sequence (P19096 whole entry): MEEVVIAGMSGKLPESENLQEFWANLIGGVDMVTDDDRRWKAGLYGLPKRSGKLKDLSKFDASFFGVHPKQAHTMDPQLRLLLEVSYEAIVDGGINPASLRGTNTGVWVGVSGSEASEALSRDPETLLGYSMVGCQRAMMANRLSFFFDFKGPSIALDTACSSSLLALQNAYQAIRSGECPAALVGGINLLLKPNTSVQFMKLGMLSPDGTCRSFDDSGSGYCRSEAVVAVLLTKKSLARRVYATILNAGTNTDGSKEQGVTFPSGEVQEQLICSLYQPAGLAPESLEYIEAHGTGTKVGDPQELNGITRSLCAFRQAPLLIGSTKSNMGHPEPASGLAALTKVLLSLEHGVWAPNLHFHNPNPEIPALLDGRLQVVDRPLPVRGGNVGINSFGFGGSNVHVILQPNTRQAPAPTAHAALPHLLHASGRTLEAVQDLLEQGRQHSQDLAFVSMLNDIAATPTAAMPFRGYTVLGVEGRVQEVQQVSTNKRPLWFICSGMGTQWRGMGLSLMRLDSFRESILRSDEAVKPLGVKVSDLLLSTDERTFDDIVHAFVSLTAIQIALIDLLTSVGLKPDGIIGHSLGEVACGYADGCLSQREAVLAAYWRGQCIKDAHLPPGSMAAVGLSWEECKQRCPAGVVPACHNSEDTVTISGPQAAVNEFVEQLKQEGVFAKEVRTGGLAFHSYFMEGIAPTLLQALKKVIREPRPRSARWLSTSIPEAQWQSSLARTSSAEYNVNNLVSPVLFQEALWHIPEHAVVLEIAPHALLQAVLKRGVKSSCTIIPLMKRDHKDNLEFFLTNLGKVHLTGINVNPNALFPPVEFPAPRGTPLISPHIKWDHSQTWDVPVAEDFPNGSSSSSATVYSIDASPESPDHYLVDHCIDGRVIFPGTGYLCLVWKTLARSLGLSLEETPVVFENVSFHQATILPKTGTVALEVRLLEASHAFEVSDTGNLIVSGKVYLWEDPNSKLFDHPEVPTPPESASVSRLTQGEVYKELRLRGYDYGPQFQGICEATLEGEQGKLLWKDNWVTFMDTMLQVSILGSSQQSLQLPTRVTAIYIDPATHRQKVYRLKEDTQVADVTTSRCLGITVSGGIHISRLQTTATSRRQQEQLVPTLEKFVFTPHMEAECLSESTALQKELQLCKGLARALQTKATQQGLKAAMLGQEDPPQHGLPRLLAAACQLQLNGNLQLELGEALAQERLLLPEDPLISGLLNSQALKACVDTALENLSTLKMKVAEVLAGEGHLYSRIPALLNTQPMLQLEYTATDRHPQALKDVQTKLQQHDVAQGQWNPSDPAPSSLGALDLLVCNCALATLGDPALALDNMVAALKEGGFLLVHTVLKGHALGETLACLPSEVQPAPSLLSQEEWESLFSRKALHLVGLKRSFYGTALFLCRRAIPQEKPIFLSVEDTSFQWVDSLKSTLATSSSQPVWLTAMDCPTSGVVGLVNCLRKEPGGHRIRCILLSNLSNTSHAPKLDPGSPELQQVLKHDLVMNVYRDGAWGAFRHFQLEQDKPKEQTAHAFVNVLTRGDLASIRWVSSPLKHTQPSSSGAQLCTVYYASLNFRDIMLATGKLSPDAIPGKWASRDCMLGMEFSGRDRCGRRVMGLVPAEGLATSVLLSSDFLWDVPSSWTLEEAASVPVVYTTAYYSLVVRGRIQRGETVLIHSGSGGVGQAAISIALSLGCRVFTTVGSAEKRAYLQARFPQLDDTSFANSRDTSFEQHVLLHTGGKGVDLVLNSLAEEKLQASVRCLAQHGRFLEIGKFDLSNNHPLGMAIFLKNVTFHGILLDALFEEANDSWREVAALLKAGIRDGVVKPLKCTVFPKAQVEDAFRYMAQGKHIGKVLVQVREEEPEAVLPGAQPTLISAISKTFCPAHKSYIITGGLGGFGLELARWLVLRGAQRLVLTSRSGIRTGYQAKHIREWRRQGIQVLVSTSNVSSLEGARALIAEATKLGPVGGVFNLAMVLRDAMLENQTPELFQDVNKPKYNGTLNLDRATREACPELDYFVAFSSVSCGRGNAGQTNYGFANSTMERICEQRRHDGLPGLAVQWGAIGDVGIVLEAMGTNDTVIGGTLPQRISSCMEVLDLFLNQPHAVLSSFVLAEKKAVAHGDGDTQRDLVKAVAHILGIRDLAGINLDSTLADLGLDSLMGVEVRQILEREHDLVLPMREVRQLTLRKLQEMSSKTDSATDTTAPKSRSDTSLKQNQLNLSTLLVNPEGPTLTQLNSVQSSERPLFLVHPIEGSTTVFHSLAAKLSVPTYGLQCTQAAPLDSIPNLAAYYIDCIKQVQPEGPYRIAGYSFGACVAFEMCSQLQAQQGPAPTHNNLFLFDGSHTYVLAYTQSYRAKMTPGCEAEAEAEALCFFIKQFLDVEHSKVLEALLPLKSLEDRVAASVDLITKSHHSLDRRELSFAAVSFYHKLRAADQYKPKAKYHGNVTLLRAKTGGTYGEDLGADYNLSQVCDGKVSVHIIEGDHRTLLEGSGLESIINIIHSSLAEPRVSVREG

Row | SMILES | NADPH consumption assay with purified mFAS; GC-MS of methyl-branched fatty acid [1] | NADPH consumption by purified mFAS, fluorescence [2]
1 | CC(C(=O)O)C(=O)SCCNC(=O)CCNC(=O)[C@H](O)C(C)(C)COP(=O)(O)OP(=O)(O)OC[C@H]1O[C@@H](n2cnc3c(N)ncnc32)[C@H](O)[C@@H]1OP(=O)(O)O (mixture of isomers) [methylmalonyl-CoA] | we observed increasing activity with increasing metmal‐CoA in the absence of starter substrates | –
2 | NC(=O)C1=CN([C@@H]2O[C@H](COP(=O)(O)OP(=O)(O)OC[C@H]3O[C@@H](n4cnc5c(N)ncnc54)[C@H](OP(=O)(O)O)[C@@H]3O)[C@@H](O)[C@H]2O)C=CC1 [NADPH] | – | (NADPH) consumption of the integrated β‐ketoacyl reductase and enoyl reductase domains
